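Results reflect a 48-hour exposure of cells in 96-well plates to compound at five concentrations. GI50: concentration for 50% inhibition of growth. The concentration for full growth arrest is given as TGI.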

Common to all, as to experiment: NCI-60 cell line screen, 48 h
Assay [1] has as its system SK-MEL-28 melanoma.
Assay [2] relates to CAKI-1 renal.
Assay [3] deals with UO-31 renal.
Assay [4] has as its system KM12 colon.
The test system of assay [5] is DU-145 prostate.
The test system of assay [6] is HOP-92 NSCLC.
For assay [7], the system named is RXF 393 renal.
Assay [8] relates to CCRF-CEM leukemia.
Assay [9] has as its system HS 578T breast.
Assay [10] concerns MDA-MB-231 breast.

As to `O=C(O)c1cc(CCc2cc(O)ccc2O)ccc1O`, the TGI in assay [1], in assay [2], in assay [3], in [4], in assay [5] and in assay [6] was over 100 µM throughout. In addition, the TGI in [7] is over 100 µM; in assay [8] it was 71.4 µM; in [9], over 100 µM.
As to `COc1ccc(/C=C(\C)[N+](=O)[O-])cc1OC`, the GI50 in assay [1] is 1.71 µM; in [2], 1.88 µM; in assay [3], 1.68 µM; in assay [4] it was 4.49 µM; in [5], 1.79 µM; in assay [10] it was 2.33 µM. Also, the GI50 in assay [6] was 2.01 µM; in [7], 1.72 µM; in [9], 3.5 µM. Also, the TGI is 3.44 µM in assay [1]; 3.89 µM in assay [2]; 3.2 µM in assay [3]; 16.4 µM in [4]; 3.22 µM in [5]; 6.21 µM in assay [10]. For the same molecule, the TGI in assay [6] was found to be 3.71 µM; in assay [7] it was 3.18 µM; in [9], 15.9 µM.
`C[CH2][Hg][S]c1ccccc1C(=O)O`: the GI50 in assay [1] was 1.71 µM; in [2] it was 0.316 µM; in assay [3], 1.43 µM; in assay [4], 3.82 µM; in assay [5] it was 1.83 µM; in assay [10], 1.26 µM. In addition, the results for the GI50 in assay [8] and in [9] were 0.291 µM and 2.08 µM, respectively. Moreover, the TGI is 3.69 µM in [1]; 1.47 µM in assay [2]; 2.79 µM in assay [3]; 13.3 µM in [4]; 3.41 µM in [5]; 2.58 µM in [10]. Further, the TGI in assay [8] was 2.74 µM; in [9], over 100 µM.
With `O=C(NCCNCCO)c1cccc2ccc(-c3ccccc3)nc12`, the TGI came out at 22.1 µM in assay [1]; 14.1 µM in assay [2]; 12 µM in assay [3]; 18.3 µM in assay [4]; 11.7 µM in assay [6]; 15.5 µM in assay [7]. Moreover, in [8], the TGI came to 27.1 µM.
Turning to `N#CC1(C#N)C(c2ccccc2)C=CC12OCCCO2` (stereo unspecified), the TGI was over 100 µM in assay [1]; 74.1 µM in assay [2]; over 100 µM in assay [3]; over 100 µM in assay [4]; over 100 µM in assay [6]; 49.2 µM in assay [7]. The molecule also returned a TGI in [8] of 88.7 µM.
Take `Clc1ccc(C2ON=C(c3ccccc3)N2C23CC4CC(CC(C4)C2)C3)cc1` (stereo unspecified): the TGI in assay [1], in [2], in assay [4], in [5], in assay [10] and in assay [6] was over 10 µM each time. In addition, the TGI in [7], in [8] and in assay [9] was over 10 µM each time.
On to `Fc1cccc(F)c1C(Nc1nncs1)Nc1nncs1`, for which the TGI in [1], in assay [2], in assay [3], in [4], in assay [5] and in assay [10] was over 100 µM throughout. The TGI in assay [6], in assay [7] and in [9] was over 100 µM in each case.
For `CCOc1ccc(NC(=O)CCc2nnc(SC)o2)cc1`, the TGI in assay [1], in assay [2], in assay [3], in [4], in assay [6] and in assay [7] was over 100 µM each time. For the same molecule, the TGI in assay [8] was over 100 µM.
For `Cc1cc2c(c(C(N)=O)c1C)-c1cc(Cl)cc(Cl)c1C2=O`, the TGI in assay [1], in assay [3], in assay [4], in [6], in [7] and in [8] was over 100 µM in each case.
For `Cc1cccc(NC(=O)/C(=N\N)C(c2cnc3ccc([N+](=O)[O-])cc3n2)[N+](=O)[O-])c1C` (stereo unspecified), the TGI in [1], in assay [2], in assay [3], in assay [4], in assay [6] and in assay [7] was over 100 µM each time. In addition, the TGI in assay [8] was over 100 µM.
Consider `COc1ccc(-c2[nH]c3ccccc3c2CCNS(=O)(=O)c2ccc(C)cc2)cc1`, for which the TGI in [1], in [2], in [3], in [4], in assay [6] and in assay [7] was over 10 µM each time. In [8], this molecule returned a TGI of over 10 µM.
In the case of `CN=C1OC2(c3ccccc3)C3=C(OC(=NC)N2C)C(=O)OC3(c2ccccc2)N1C` (stereo unspecified), the TGI in assay [1], in assay [2], in [4], in [5], in assay [10] and in assay [8] was over 100 µM each time. The molecule further came in with a TGI in assay [9] of over 100 µM.
As to `C=C1[C@@H](O)O[C@H]2[C@H]1C[C@H](OC(C)=O)[C@]13C(=O)O[C@H]4C[C@](C)(O)[C@H]([C@H]41)C31C=C(C)[C@]2(O)O1`, the GI50 in [1] was 61 µM; in assay [2], 0.516 µM; in assay [3] it was 27.2 µM; in assay [4] it was 36.8 µM; in [10] it was 34.9 µM; in [6], over 100 µM. The GI50 in assay [8] is 18.9 µM. Further, the TGI in [1] was over 100 µM; in assay [2], 34.6 µM; in assay [3], 74.1 µM; in [4] it was over 100 µM; in [10], over 100 µM; in [6] it was over 100 µM. The molecule also returned a TGI in assay [8] of over 100 µM.
As for `COc1ccc(NC(=O)C(=O)/C=C(\O)c2ccccc2)cc1`, the TGI in assay [1], in assay [2], in assay [4], in [5], in assay [10] and in assay [6] was over 10 µM each time. For the same molecule, the figures for the TGI in assay [7] and in assay [8] were over 10 µM and 8.76 µM, respectively.
